Measurements reported in PMC10580383, “Development of Melanocortin 4 Receptor Agonists by Exploiting Animal-Derived Macrocyclic, Disulfide-Rich Peptide Scaffolds” (ACS Pharmacology & Translational Science, 2023).
Like-named read-outs stand apart in the source and are kept apart here. Where a SMILES comes first, the peptide text is derived from it. Bridges are numbered along the chain shown (N, C = ends). [ ]: non-standard residue; d: D form. pGlu = O=C1CC[C@@H](C(=O)O)N1

Target: T1, mouse melanocortin 4 receptor (MC4R) (Mus musculus, UniProt P56450)
T1 construct: expressed in transfected cells; host or cells: HEK293 / HEK293T, transient transfection
T1 sequence (P56450 whole entry): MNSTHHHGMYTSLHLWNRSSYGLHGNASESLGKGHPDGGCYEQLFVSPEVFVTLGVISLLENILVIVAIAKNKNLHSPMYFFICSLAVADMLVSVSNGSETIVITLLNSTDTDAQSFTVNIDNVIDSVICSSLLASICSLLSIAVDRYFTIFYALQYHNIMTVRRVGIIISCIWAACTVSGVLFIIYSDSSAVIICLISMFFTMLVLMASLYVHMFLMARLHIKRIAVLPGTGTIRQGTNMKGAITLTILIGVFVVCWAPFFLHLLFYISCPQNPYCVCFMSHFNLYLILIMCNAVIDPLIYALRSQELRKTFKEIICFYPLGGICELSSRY
Experiment: cAMP second messenger quantification assay (Cisbio HTRF cAMP Gs kit)
Type: cell-based
Description: Figure 3 Functional cAMP assay of synthesized peptide analogues targeting MC4R. The accumulation of adenylyl cyclase-catalyzed cAMP of (A) tachylplesin-1-like peptides (Ta1LPs, green), (B) protegrin-4-like peptides ([…], pink), (C) arenicin-3-like peptides (Ar3LPs, orange), and (D) gomesin-like peptides (GoLPs, blue) was measured in HEK293 cells transiently expressing mouse melanocortin 4 receptor (MC4R). […] Data are from three independent experiments and are shown as mean ± SEM.
Assays were performed on cells transiently expressing mouse MC4R-EGFP. BamHI and SacI restriction sites were used to clone mouse MC4R N-terminally into a pEGFP-N1 vector. Peptide ligands were assayed for […] in a 384-well format and triplicate according to the Cisbio protocol. Briefly, 5 μL containing 10,000 cells per well was incubated with 5 μL of peptide solutions prepared 2× in 1× stimulation buffer. Following an incubation of peptide ligands at 37 °C for 30 min, d2-labeled cAMP and cryptate-labeled antibody (5 μL of each) were added to the mixture and further incubated for at least 1 h at room temperature. Subsequently, cAMP levels were quantified on a Flexstation 3 (Molecular Devices, San Jose, USA) using homogeneous time-resolved fluorescence resonance energy transfer and the ratio 665/620 nm. Samples were measured in technical triplicates.
Data analysis was performed with GraphPad Prism (GraphPad Software, San Diego). The potency (EC50) and maximum efficacy (Emax) values of peptide ligands were derived from functional data fitted to three- or four-parameter nonlinear regression curves constrained to a bottom of zero.

[1] = HEK293, read-out: efficacy cAMP Emax ± SD

Row | Structure (SMILES) | EC50 [nM] | Emax (HEK293; read-out: efficacy cAMP Emax ± SD) [%] | Emax [1] [%]
1 | CC(C)[C@@H]1NC(=O)[C@H](CCCNC(=N)N)NC(=O)[C@H](Cc2c[nH]c3ccccc23)NC(=O)[C@H](Cc2c[nH]cn2)NC(=O)[C@@H](Cc2ccccc2)NC(=O)[C@H](Cc2c[nH]cn2)NC(=O)[C@@H]2CCCN2C(=O)[C@H](C(C)C)NC(=O)[C@@H]2CSSC[C@H](NC1=O)C(=O)N[C@@H](Cc1ccc(O)cc1)C(=O)N[C@@H](CCCNC(=N)N)C(=O)N[C@@H](CCCNC(=N)N)C(=O)N[C@H](C(=O)N[C@@H](CC(N)=O)C(N)=O)CSSC[C@H](NC(=O)[C@H](Cc1ccccc1)NC(=O)CN)C(=O)N[C@@H](Cc1c[nH]c3ccccc13)C(=O)N[C@@H](Cc1ccc(O)cc1)C(=O)N[C@@H](C(C)C)C(=O)N2 [Ar3LP3] (H-GFCWYVCVPH[dF]HWRVCYRRCN-NH2; disulfide 3-20, 7-16) | 1000 | 117 ± 18 | –
2 | CC(C)C[C@@H]1NC(=O)[C@H](CCCNC(=N)N)NC(=O)[C@H](CCCNC(=N)N)NC(=O)[C@@H](NC(=O)[C@@H]2CCC(=O)N2)CSSC[C@@H](C(=O)N[C@@H](CCCNC(=N)N)C(=O)NCC(=O)N[C@@H](CCCNC(=N)N)C(N)=O)NC(=O)[C@H](Cc2ccc(O)cc2)NC(=O)[C@H]([C@@H](C)O)NC(=O)[C@H](C(C)C)NC(=O)[C@@H]2CSSC[C@H](NC1=O)C(=O)N[C@@H](Cc1c[nH]cn1)C(=O)N[C@H](Cc1ccccc1)C(=O)N[C@@H](CCCNC(=N)N)C(=O)N[C@@H](Cc1c[nH]c3ccccc13)C(=O)N2 [GoLP3] ([pGlu]CRRLCH[dF]RWCVTYCRGR-NH2; disulfide 2-15, 6-11) | 39.8 | – | 104 ± 5
3 | CC(C)C[C@H](NC(=O)[C@H](CCCNC(=N)N)NC(=O)CNC(=O)CNC(=O)[C@@H](N)CCCNC(=N)N)C(=O)N[C@H]1CSSC[C@@H](C(=O)N[C@H](C(=O)NCC(=O)N[C@@H](CCCNC(=N)N)C(N)=O)C(C)C)NC(=O)[C@H](Cc2ccccc2)NC(=O)[C@@H]2CSSC[C@H](NC(=O)[C@H](Cc3ccc(O)cc3)NC1=O)C(=O)N[C@@H](Cc1c[nH]cn1)C(=O)N[C@H](Cc1ccccc1)C(=O)N[C@@H](Cc1c[nH]cn1)C(=O)N[C@@H](Cc1c[nH]c3ccccc13)C(=O)N2 [Pr4LP2] (H-RGGRLCYCH[dF]HWCFCVGR-NH2; disulfide 6-15, 8-13) | 158 | – | 97 ± 4
4 | CC(C)C[C@H](NC(=O)[C@H](CCCNC(=N)N)NC(=O)CNC(=O)CNC(=O)[C@@H](N)CCCNC(=N)N)C(=O)N[C@H]1CSSC[C@@H](C(=O)N[C@H](C(=O)NCC(=O)N[C@@H](CCCNC(=N)N)C(N)=O)C(C)C)NC(=O)[C@H](Cc2ccccc2)NC(=O)[C@@H]2CSSC[C@H](NC(=O)[C@H](Cc3ccc(O)cc3)NC1=O)C(=O)N[C@@H](Cc1c[nH]cn1)C(=O)N[C@H](Cc1ccccc1)C(=O)N[C@@H](CCCNC(=N)N)C(=O)N[C@@H](Cc1c[nH]c3ccccc13)C(=O)N2 [Pr4LP3] (H-RGGRLCYCH[dF]RWCFCVGR-NH2; disulfide 6-15, 8-13) | 200 | – | 99 ± 6
5 | CC(C)[C@@H]1NC(=O)[C@H](CCCNC(=N)N)NC(=O)[C@H](Cc2ccccc2)NC(=O)[C@@H](NC(=O)[C@H](Cc2c[nH]c3ccccc23)NC(=O)[C@@H](N)CCCCN)CSSC[C@@H](C(=O)N[C@@H](CCCNC(=N)N)C(N)=O)NC(=O)[C@H](CCCNC(=N)N)NC(=O)[C@H](CCCNC(=N)N)NC(=O)[C@H](Cc2ccc(O)cc2)NC(=O)[C@@H]2CSSC[C@H](NC1=O)C(=O)N1CCC[C@H]1C(=O)N[C@@H](Cc1c[nH]cn1)C(=O)N[C@H](Cc1ccccc1)C(=O)N[C@@H](Cc1c[nH]cn1)C(=O)N[C@@H](Cc1c[nH]c3ccccc13)C(=O)N2 [Ta1LP1] (H-KWCFRVCPH[dF]HWCYRRCR-NH2; disulfide 3-17, 7-13) | 20 | – | 97 ± 4
